Patent US6843979B2, “4-haloethenylphenyl tropane:serotonin transporter imaging agents” (Emory University, priority 1999, dated 2005)

How the values were obtained:
[1] = target: SERT sites (Macaca mulatta, UniProt Q9MYX0); experiment: SPECT imaging and fluvoxamine chase study in rhesus monkey; settings: for Displacement of tracer by fluvoxamine (SPECT): fluvoxamine 5 mg i.v., midbrain / brainstem; for Brain uptake by SPECT: midbrain by 54 min, brainstem at 80-110 min
Description: SPECT images were reconstructed as transaxial slices (3.2 mm) and attenuation corrected.

[2] = test system: SERT; experiment: SPECT imaging in baboon; assay type: in vivo; settings: anesthetized baboon, 300-360 min
Method: FIG. 7 is a graph showing time activity curves of [^123I]ZIENT in a baboon.
The baboon was injected with 10 mCi of [^123I]ZIENT and serial images (128×128×64 matrix: pixel size=1.67×1.67 mm, slice, thickness=1.67 mm, voxel volume=4.66 mm^3) were acquired at 159 keV, in step and shoot mode at 10 min each for a total of 360 to 390 min and 32 to 35 acquisitions per experiment. Images were reconstructed using a ramp and a Butterworth filter (cutoff=0.65 cm-power factor=10). To identify brain regions, MRI scans of 1.5 mm contiguous slices were obtained with a 1.5 Tesla GE Signa device. Axial images were acquired using a spoiled GRASS (gradient recall acquisition in the steady state) sequence with TR=25 ms, TE=5 ms, NEX=2, matrix=256×192, field of view=16 cm. […] The uptake ratio of brainstem/cerebellum was 3.0:1 at 300-360 min.

[3] = Tissue uptake of [123I]ZIENT in rats; settings: rat
[4] = target: rat brain SERT (Rattus norvegicus, UniProt P31652); experiment: Regional brain uptake of [123I]ZIENT in rats with blocking agents
[5] = 5 mg/kg i.v. 15 min prior, 60 min
[6] = 60 min, Fluvoxamine 5 mg/kg i.v. 15 min prior
[7] = 60 min, GBR 12909 5 mg/kg i.v. 15 min prior
[8] = 60 min after i.v., listed as [^123]ZIENT

SERT sites, sequence (Q9MYX0 whole entry): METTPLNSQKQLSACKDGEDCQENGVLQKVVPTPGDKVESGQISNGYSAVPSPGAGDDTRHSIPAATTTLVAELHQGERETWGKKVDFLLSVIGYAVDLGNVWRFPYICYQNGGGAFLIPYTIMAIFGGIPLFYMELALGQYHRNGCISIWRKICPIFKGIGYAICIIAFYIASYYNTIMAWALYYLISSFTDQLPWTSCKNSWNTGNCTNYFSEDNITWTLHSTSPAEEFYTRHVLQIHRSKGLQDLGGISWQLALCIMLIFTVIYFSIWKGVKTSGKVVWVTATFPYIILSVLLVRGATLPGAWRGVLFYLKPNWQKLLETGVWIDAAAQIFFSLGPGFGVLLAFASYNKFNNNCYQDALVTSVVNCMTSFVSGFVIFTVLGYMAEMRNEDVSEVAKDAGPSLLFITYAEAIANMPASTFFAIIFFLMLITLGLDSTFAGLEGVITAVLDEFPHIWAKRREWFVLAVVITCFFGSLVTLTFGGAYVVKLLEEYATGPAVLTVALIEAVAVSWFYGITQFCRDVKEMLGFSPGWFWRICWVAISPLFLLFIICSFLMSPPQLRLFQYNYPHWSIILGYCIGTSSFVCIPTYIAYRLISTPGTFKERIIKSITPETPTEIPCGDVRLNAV
rat brain SERT, sequence (P31652 whole entry): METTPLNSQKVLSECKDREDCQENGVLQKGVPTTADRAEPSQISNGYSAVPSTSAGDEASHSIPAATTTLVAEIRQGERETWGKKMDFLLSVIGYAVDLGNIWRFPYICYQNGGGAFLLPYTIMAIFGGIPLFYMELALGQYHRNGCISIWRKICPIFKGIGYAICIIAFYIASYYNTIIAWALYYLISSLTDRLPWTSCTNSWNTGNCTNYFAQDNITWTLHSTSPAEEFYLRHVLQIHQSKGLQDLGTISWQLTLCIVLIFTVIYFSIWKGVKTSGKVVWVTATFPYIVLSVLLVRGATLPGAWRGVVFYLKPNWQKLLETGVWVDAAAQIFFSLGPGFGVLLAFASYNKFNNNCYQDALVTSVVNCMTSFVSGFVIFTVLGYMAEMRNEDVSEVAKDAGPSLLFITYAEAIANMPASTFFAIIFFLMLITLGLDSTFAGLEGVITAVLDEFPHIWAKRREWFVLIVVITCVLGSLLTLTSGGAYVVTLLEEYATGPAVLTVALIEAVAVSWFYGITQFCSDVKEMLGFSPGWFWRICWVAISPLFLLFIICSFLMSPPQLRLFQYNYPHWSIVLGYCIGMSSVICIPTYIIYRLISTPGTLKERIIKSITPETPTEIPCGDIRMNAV

SMILES: COC(=O)C1C2CCC(CC1c1ccc(C=C[123I])cc1)N2 (stereo not shown) [[^123I]ZIENT]
- Displacement of tracer by fluvoxamine (SPECT) [1]: significant reduction of activity
- Displacement of tracer by fluvoxamine (SPECT) ([1]; listed as [^123I] ZIENT): significantly displaced
- Brain uptake by SPECT [1]: regions of highest uptake
- Brain uptake by SPECT ([1]; listed as [^123I] ZIENT): high
- Uptake ratio of brainstem/cerebellum [2]: 3.0
- Tissue uptake, Blood ([3]; 5 min after i.v.): 0.64 (0.52-0.86) percent dose per gram
- Tissue uptake, Heart ([3]; 5 min after i.v.): 2.41 (2.36-2.47) percent dose per gram
- Tissue uptake, Kidney ([3]; 5 min after i.v.): 2.35 (2.16-2.67) percent dose per gram
- Tissue uptake, Liver ([3]; 5 min after i.v.): 0.99 (0.73-1.33) percent dose per gram
- Tissue uptake, Lung ([3]; 5 min after i.v.): 9.71 (7.9-11.8) percent dose per gram
- Tissue uptake, Muscle ([3]; 5 min after i.v.): 0.30 (0.15-0.44) percent dose per gram
- Tissue uptake, Spleen ([3]; 5 min after i.v.): 3.79 (3.28-4.67) percent dose per gram
- Tissue uptake, Testis ([3]; 5 min after i.v.): 0.22 (0.19-0.27) percent dose per gram
- Tissue uptake, Thyroid ([3]; 5 min after i.v.): 0.11 (0.08-0.12) percent dose per gram
- Tissue uptake, Blood ([3]; 30 min after i.v.): 0.46 (0.43-0.49) percent dose per gram
- Tissue uptake, Heart ([3]; 30 min after i.v.): 0.52 (0.48-0.55) percent dose per gram
- Tissue uptake, Kidney ([3]; 30 min after i.v.): 0.66 (0.64-0.70) percent dose per gram
- Tissue uptake, Liver ([3]; 30 min after i.v.): 0.43 (0.38-0.51) percent dose per gram
- Tissue uptake, Lung ([3]; 30 min after i.v.): 1.48 (1.35-1.66) percent dose per gram
- Tissue uptake, Muscle ([3]; 30 min after i.v.): 0.29 (0.25-0.32) percent dose per gram
- Tissue uptake, Spleen ([3]; 30 min after i.v.): 1.24 (1.03-1.50) percent dose per gram
- Tissue uptake, Testis ([3]; 30 min after i.v.): 0.36 (0.30-0.47) percent dose per gram
- Tissue uptake, Thyroid ([3]; 30 min after i.v.): 0.23 (0.19-0.29) percent dose per gram
- Tissue uptake, Blood ([3]; 60 min after i.v.): 0.39 (0.23-0.42) percent dose per gram
- Tissue uptake, Heart ([3]; 60 min after i.v.): 0.36 (0.15-0.40) percent dose per gram
- Tissue uptake, Kidney ([3]; 60 min after i.v.): 0.44 (0.29-0.50) percent dose per gram
- Tissue uptake, Liver ([3]; 60 min after i.v.): 0.28 (0.11-0.30) percent dose per gram
- Tissue uptake, Lung ([3]; 60 min after i.v.): 1.27 (0.62-1.44) percent dose per gram
- Tissue uptake, Muscle ([3]; 60 min after i.v.): 0.20 (0.11-0.22) percent dose per gram
- Tissue uptake, Spleen ([3]; 60 min after i.v.): 0.82 (0.50-0.94) percent dose per gram
- Tissue uptake, Testis ([3]; 60 min after i.v.): 0.29 (0.26-0.34) percent dose per gram
- Tissue uptake, Thyroid ([3]; 60 min after i.v.): 0.33 (0.17-0.37) percent dose per gram
- Tissue uptake, Blood ([3]; 120 min after i.v.): 0.33 (0.31-0.36) percent dose per gram
- Tissue uptake, Heart ([3]; 120 min after i.v.): 0.20 (0.18-0.24) percent dose per gram
- Tissue uptake, Kidney ([3]; 120 min after i.v.): 0.32 (0.29-0.35) percent dose per gram
- Tissue uptake, Liver ([3]; 120 min after i.v.): 0.29 (0.23-0.41) percent dose per gram
- Tissue uptake, Lung ([3]; 120 min after i.v.): 0.72 (0.61-0.78) percent dose per gram
- Tissue uptake, Muscle ([3]; 120 min after i.v.): 0.16 (0.14-0.18) percent dose per gram
- Tissue uptake, Spleen ([3]; 120 min after i.v.): 0.51 (0.44-0.55) percent dose per gram
- Tissue uptake, Testis ([3]; 120 min after i.v.): 0.30 (0.26-0.33) percent dose per gram
- Tissue uptake, Thyroid ([3]; 120 min after i.v.): 1.61 (0.82-2.31) percent dose per gram
- Effect of GBR 12909 (DAT ligand) on tracer uptake in striatum [4, 5]: did not significantly block
- Effect of NET blocking agent (reboxetine) on regional brain uptake of tracer [4, 5]: little effect
- Effect of fluvoxamine (SERT ligand) on tracer uptake in hypothalamus and striatum [4, 5]: significantly blocked
- Hypothal/(CB) ratio [4, 6]: 1.3
- Regional uptake, Brain [4, 6]: 0.27 (0.24 0-0.30) % dose/g
- Regional uptake, Cerebellum [4, 6]: 0.18 (0.16-0.20) % dose/g
- Regional uptake, Frontal Cortex [4, 6]: 0.26 (0.23-0.29) % dose/g
- Regional uptake, Hypothalamus [4, 6]: 0.23 (0.18-0.27) % dose/g
- Regional uptake, Striatum [4, 6]: 0.28 (0.24-0.32) % dose/g
- Striatum/(CB) ratio [4, 6]: 1.6
- Hypothal/(CB) ratio [4, 7]: 1.8
- Regional uptake, Brain [4, 7]: 0.39 (0.37-0.42) % dose/g
- Regional uptake, Cerebellum [4, 7]: 0.21 (0.18-0.26) % dose/g
- Regional uptake, Frontal Cortex [4, 7]: 0.43 (0.38-0.47) % dose/g
- Regional uptake, Hypothalamus [4, 7]: 0.38 (0.34-0.41) % dose/g
- Regional uptake, Striatum [4, 7]: 0.40 (0.37-0.42) % dose/g
- Striatum/(CB) ratio [4, 7]: 1.9
- Hypothal/(CB) ratio ([4]; 60 min after i.v.): 2.7
- Regional uptake, Brain ([4]; 60 min after i.v.): 0.61 (0.56-0.63) % dose/g
- Regional uptake, Cerebellum ([4]; 60 min after i.v.): 0.29 (0.28-0.31) % dose/g
- Regional uptake, Frontal Cortex ([4]; 60 min after i.v.): 0.70 (0.65-0.78) % dose/g
- Regional uptake, Hypothalamus ([4]; 60 min after i.v.): 0.7 % dose/g
- Regional uptake, Striatum ([4]; 60 min after i.v.): 0.60 (0.54-0.63) % dose/g
- Striatum/(CB) ratio ([4]; 60 min after i.v.): 2.1
- Hypothal/(CB) ratio ([4]; 60 min after i.v., listed as [^123I] ZIENT): 3
- Hypothal/(CB) ratio [4, 8]: 2.7
- Regional uptake, Hypothalamus [4, 8]: 0.77 (0.69-0.83) % dose/g
- Hypothal/(CB) ratio ([4]; 120 min after i.v.): 4.4
- Regional uptake, Brain ([4]; 120 min after i.v.): 0.40 (0.32-0.50) % dose/g
- Regional uptake, Cerebellum ([4]; 120 min after i.v.): 0.12 (0.11-0.28) % dose/g
- Regional uptake, Frontal Cortex ([4]; 120 min after i.v.): 0.48 (0.42-0.53) % dose/g
- Regional uptake, Hypothalamus ([4]; 120 min after i.v.): 0.53 (0.44-0.60) % dose/g
- Regional uptake, Striatum ([4]; 120 min after i.v.): 0.46 (0.37-0.55) % dose/g
- Striatum/(CB) ratio ([4]; 120 min after i.v.): 3.8
- Hypothal/(CB) ratio ([4]; 120 min after i.v., listed as [^123I] ZIENT): 5
- Hypothal/(CB) ratio ([4]; 120 min after i.v., listed as [^123]ZIENT): 4.4
- Prefrontal cortex to cerebellum ratio ([4]; 120 min post injection): 2.9
- Clearance from the hypothalamus ([4]; at 120 min compared to 60 min post injection): 30%
